Measured values reported in patent publication US20240308960A1 (Sumitomo Pharma Co., Ltd., priority 2021, published 2024).

target: T1, Human orexin receptor type 2 (Homo sapiens, UniProt O43614); assay: Test Example 2: agonist activity for orexin receptor type 2 (aequorin luminescence, intracellular calcium mobilization); format: cell-based; design: expressed in transfected cells; host or cells: CHO cells (transient expression); conditions: compound 10 μm; CHO cells transiently expressing human orexin receptor type 2 and apoaequorin; relative percentage of luminescence for the luminescence (100%) of Orexin A (100 pM)
T1 sequence (O43614 1-444): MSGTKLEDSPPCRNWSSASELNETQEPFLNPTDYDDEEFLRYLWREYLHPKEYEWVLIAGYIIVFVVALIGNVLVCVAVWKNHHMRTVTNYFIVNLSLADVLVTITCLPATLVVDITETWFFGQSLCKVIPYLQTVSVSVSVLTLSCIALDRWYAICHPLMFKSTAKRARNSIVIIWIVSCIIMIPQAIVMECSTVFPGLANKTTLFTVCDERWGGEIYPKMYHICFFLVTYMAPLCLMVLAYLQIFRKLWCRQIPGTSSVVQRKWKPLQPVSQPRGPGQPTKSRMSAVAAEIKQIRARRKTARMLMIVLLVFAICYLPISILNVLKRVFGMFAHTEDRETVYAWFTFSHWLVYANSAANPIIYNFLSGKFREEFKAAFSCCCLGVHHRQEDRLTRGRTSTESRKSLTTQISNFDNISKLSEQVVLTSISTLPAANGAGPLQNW
Experimental: Test Example 2: Measurement of Agonist Activity for Orexin Receptor 2 Type
Human orexin receptor type 2 and apoaequorin were transiently expressed in CHO cells, and the agonist activity was evaluated based on intracellular calcium mobilization with ligand stimulation. The CHO cells transiently-expressed human orexin receptor type 2 and apoaequorin were seeded on a 384-well plate by 2,000 cells/well, and then incubated for 16-22 hours. After the plate was returned to room temperature, Coelenterazine hcp (final concentration: 1 μM) was added to the plate, and the plate was allowed to stand at room temperature for 2 hours. And then, Orexin A (PEPTIDE INSTITUTE, INC., Lot. 671009) or each test compound was added to the plate, and the luminescence of the cells was measured with FDSS7000 (Hamamatsu Photonics K. K.), wherein Orexin A and each test compound were dissolved in DMSO (final concentration: 0.1%), and diluted with a buffer (Hanks, 20 mM HEPES, 0.1% BSA).

Agonist Activity (%) | SMILES
444 | CC(C)N1CCN(c2cccc(Cl)c2NC(=O)N2C[C@H]3C[C@H](c4noc(C5CC5)n4)C[C@H]3C2)CC1 [Example 169, (3aR,5s,6aS)-N-{2-chloro-6-[4-(propan-2-yl)piperazin-1-yl]phenyl}-5-(5-cyclopropyl-1,2,4-oxadiazol-13-yl) hexahydrocyclopenta [c]pyrrol-2 (1H)-carboxamide]
357 | CC(C)N1CCN(c2cccc(Cl)c2NC(=O)N2C[C@H]3C[C@@H](c4noc(C5CC5)n4)C[C@H]3C2)CC1 [Example 170, (3aR,5r,6aS)-N-{2-chloro-6-[4-(propan-2-yl)piperazin-1-yl]phenyl}-5-(5-cyclopropyl-1,2,4-oxadiazol-13-yl) hexahydrocyclopenta [c]pyrrol-2 (1H)-carboxamide]

target: T1, Human orexin receptor type 2; assay: Test Example 1: agonist activity for orexin receptor type 2 (aequorin luminescence, intracellular calcium mobilization); conditions: compound 10 μm; CHO cells transiently expressing human orexin receptor type 2 and apoaequorin; relative percentage of luminescence for the luminescence (100%) of Orexin A (100 μM)

Agonist Activity (%) | SMILES
136 | CC(C)N1C[C@H]2C[C@@H]1CN2c1cccc(F)c1NC(=O)N1CCC(C)(c2noc(C3CC3)n2)CC1 [Example 152, 4-(5-cyclopropyl-1,2,4-oxadiazol-3-yl)-N-{2-fluoro-6-[(1R,4R)-5-(propan-2-yl)-2,5-diazabicyclo[2.2.1]heptan-2-yl]phenyl}-4-methylpiperidine-1-carboxamide]
54 | CCN1CCCN(c2ccccc2NC(=O)N2CCC(c3ccc(C)cc3)CC2)CC1 [Example 153, N-[2-(4-ethyl-1,4-diazepan-1-yl)phenyl]-4-(4-methylphenyl)piperidine-1-carboxamide]
38 | CCN1CCCN(c2ccccc2NC(=O)N2CCC(C)(c3noc(C4CC4)n3)CC2)CC1 [Example 156, 4-(5-cyclopropyl-1,2,4-oxadiazol-3-yl)-N-[2-(4-ethyl-1,4-diazepan-1-yl)phenyl]-4-methylpiperidine-1-carboxamide]
94 | CCCN1CCCN(c2ccccc2NC(=O)N2CCC(C)(c3noc(C4CC4)n3)CC2)CC1 [Example 157, 4-(5-cyclopropyl-1,2,4-oxadiazol-3-yl)-4-methyl-N-[2-(4-propyl-1,4-diazepan-1-yl)phenyl]piperidine-1-carboxamide]
141 | CC(C)N1CC(Oc2cccc(Cl)c2NC(=O)N2CCC(C)(c3noc(C4CC4)n3)CC2)C1 [Example 160, N-(2-chloro-6-{[1-(propan-2-yl)azetidin-3-yl]oxy}phenyl)-4-(5-cyclopropyl-1,2,4-oxadiazol-3-yl)-4-methylpiperidine-1-carboxamide]
100 | Cc1noc(C2(C)CCN(C(=O)Nc3ccccc3N3CCN(C(C)C)CC3)CC2)n1 [Example 162, 4-Methyl-4-(3-methyl-1,2,4-oxadiazol-5-yl)-N-{2-[4-(propan-2-yl)piperazin-1-yl]phenyl}piperidine-1-carboxamide]
110 | CC(C)c1noc(C2(C)CCN(C(=O)Nc3ccccc3N3CCN(C(C)C)CC3)CC2)n1.Cl [Example 163, 4-methyl-4-[3-(propan-2-yl)-1,2,4-oxadiazol-5-yl]-N-{2-[4-(propan-2-yl)piperazin-1-yl]phenyl}piperidine-1-carboxamide hydrochloride]
128 | Cc1noc(C2(F)CCN(C(=O)Nc3ccccc3N3CCN(C(C)C)CC3)CC2)n1 [Example 164, 4-fluoro-4-(3-methl-1,2,4-oxadiazol-5-yl)-N-{2-[4-(propan-2-yl)piperazin-1-yl]phenyl}piperidine-1-carboxamide]
96 | Cc1nnc(C2(C)CCN(C(=O)Nc3ccccc3N3CCN(C(C)C)CC3)CC2)o1 [Example 165, 4-Methyl-4-(5-methyl-1,3,4-oxadiazol-2-yl)-N-{2-[4-(propan-2-yl)piperazin-1-yl]phenyl}piperidine-1-carboxamide]
72 | Cc1ccc(C2CCN(C(=O)Nc3ccccc3[C@@H]3CN[C@@H](C(C)C)CO3)CC2)cc1 [Example 166, 4-(4-Methylphenyl)-N-{2-[(2R,5S)-5-(propan-2-yl)morpholin-2-yl]phenyl}piperidine-1-carboxamide]

SMILES | Agonist Activity (%)
Cc1ccc(C2CCN(C(=O)Nc3c(F)cccc3N3CC4CCC(C3)N4C(C)C)CC2)cc1 [Example 154, N-{2-fluoro-6-[8-(propan-2-yl)-3,8-diazabicyclo[3.2.1]octan-3-yl]phenyl}-4-(4-methylphenyl)piperidine-1-carboxamide] | 40
CC(C)N1C2CCC1CN(c1cccc(F)c1NC(=O)N1CCC(C)(c3noc(C4CC4)n3)CC1)C2 [Example 155, 4-(5-cyclopropyl-1,2,4-oxadiazol-3-yl)-N-{2-fluoro-6-[8-(propan-2-yl)-3,8-diazabicyclo[3.2.1]octan-3-yl]phenyl}-4-methylpiperidine-1-carboxamide] | 55
CC(C)N1CC=C(c2cccc(Cl)c2NC(=O)N2CCC(C)(C#N)CC2)CC1 [Example 158, N-{2-chloro-6-[1-(propan-2-yl)-1,2,3,6-tetrahydropyridin-4-yl]phenyl}-4-cyano-4-methylpiperidine-1-carboxamide] | 133
CC1(C#N)CCN(C(=O)Nc2c(Cl)cccc2C2=CCN(C3CCC3)CC2)CC1 [Example 159, N-[2-chloro-6-(1-cyclobutyl-1,2,3,6-tetrahydropyridin-4-yl)phenyl]-4-cyano-4-methylpiperidine-1-carboxamide] | 150
Cc1ccc(C2CCN(C(=O)Nc3c(F)cccc3N3C4CCC3CN(C(C)C)C4)CC2)cc1 [Example 161, N-{2-Fluoro-6-[3-(propan-2-yl)-3,8-diazabicyclo[3.2.1]octan-8-yl]phenyl}-4-(4-methylphenyl)piperidine-1-carboxamide] | 90
